These results are taken from patent US20230265116A1, “DEGRADATION OF (EGFR) BY CONJUGATION OF EGFR INHIBITORS WITH E3 LIGASE LIGAND AND METHODS OF USE” (BEIGENE, LTD., priority 2020, published 2023).

The target of assay [1] is T1, EGFR L858R/T790M/C797S (BaF3-LTC cells) (Homo sapiens, UniProt P00533, C797S/L858R/T790M).
T1 construct: expressed in transfected cells; host or cells: BaF3
Briefly: EGFR degradation HTRF assay, BaF3-LTC cells. It is filed as cell-based. In a few lines:
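EGFR remaining after a 16 h, 37 °C exposure (8 doses, 5-fold steps from 10 uM final, 0.2% DMSO) was quantified by HTRF antibodies in cell lysate. Percent inhibition relative to DMSO control was fitted by four-parameter logistic to give DC50; Dmax denotes maximal degradation.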

Assay [2] has as its system EGFR Del19/T790M/C797S (H1975-clone #28). Briefly: EGFR degradation HTRF assay, H1975-clone #28 DTC cells. It is filed as cell-based. In a few lines:
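Cells were dosed on day 2 with an 8-point, 5-fold dilution series starting at 10 uM final and incubated 16h at 37° C. After lysis for 1 hour, HTRF antibodies were added overnight at room temperature and the plate was read at 665/620 nm. Degradation was normalised to DMSO wells and fitted for DC50 and Dmax.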

Setting [3] is: BaF3-LTC cells; EGFR degradation, IC50 (DC50) from curve fit; read-out: DC50(nM) BaF3-LTC.
[4] abbreviates: BaF3-LTC cells; maximum percentage of inhibition (degradation); read-out: Dmax (%) BaF3-LTC.
[5] abbreviates: H1975 # 28 DTC cells; EGFR degradation, IC50 (DC50) from curve fit; read-out: DC50(nM) H1975 # 28 DTC.
Setting [6] is: H1975 # 28 DTC cells; maximum percentage of inhibition (degradation).
Setting [7] is: read-out: DC50(nM) BaF3-LTC; BaF3-LTC cells; EGFR degradation, IC50 (DC50) from curve fit.
Where [8] appears, read: read-out: Dmax (%) BaF3-LTC, BaF3-LTC cells; maximum percentage of inhibition (degradation).
Where [9] appears, read: read-out: DC50(nM) H1975 # 28 DTC; H1975 # 28 DTC cells; EGFR degradation, IC50 (DC50) from curve fit.

Like-named read-outs stand apart in the source and are kept apart here.

T1 sequence (P00533 25-1210 T790M/C797S/L858R): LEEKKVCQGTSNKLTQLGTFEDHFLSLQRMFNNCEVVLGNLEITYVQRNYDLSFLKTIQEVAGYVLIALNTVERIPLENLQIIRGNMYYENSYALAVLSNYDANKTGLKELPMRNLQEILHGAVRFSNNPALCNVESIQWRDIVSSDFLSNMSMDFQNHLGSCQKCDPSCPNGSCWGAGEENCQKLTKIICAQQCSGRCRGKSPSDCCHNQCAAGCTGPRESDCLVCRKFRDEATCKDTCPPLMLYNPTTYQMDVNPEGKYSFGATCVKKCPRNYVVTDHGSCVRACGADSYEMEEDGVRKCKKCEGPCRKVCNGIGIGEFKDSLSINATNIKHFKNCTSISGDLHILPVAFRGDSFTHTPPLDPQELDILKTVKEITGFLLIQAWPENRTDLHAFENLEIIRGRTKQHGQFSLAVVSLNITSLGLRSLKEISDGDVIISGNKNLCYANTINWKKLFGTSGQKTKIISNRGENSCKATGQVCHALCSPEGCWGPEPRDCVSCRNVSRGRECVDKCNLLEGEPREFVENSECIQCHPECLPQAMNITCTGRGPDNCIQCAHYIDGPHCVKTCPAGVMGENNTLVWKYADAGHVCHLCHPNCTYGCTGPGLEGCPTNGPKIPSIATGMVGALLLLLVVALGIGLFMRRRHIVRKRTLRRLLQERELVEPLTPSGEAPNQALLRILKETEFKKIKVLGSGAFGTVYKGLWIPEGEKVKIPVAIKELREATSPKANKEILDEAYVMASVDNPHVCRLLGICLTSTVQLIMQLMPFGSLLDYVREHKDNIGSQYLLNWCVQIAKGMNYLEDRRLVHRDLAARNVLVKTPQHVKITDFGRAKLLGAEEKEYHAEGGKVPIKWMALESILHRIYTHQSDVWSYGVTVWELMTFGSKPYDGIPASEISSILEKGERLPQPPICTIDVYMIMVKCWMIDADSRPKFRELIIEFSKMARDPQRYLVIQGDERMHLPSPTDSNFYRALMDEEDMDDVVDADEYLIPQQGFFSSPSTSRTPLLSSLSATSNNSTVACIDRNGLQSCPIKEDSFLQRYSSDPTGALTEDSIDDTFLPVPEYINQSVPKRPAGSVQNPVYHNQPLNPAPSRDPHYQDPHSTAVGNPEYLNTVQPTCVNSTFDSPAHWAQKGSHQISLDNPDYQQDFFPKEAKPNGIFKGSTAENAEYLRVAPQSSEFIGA

For the compound `CCc1cc(Nc2ncc(Br)c(Nc3ccc4c(=O)n(C5CC5)ncc4c3P(C)(C)=O)n2)c(OC)cc1N1CCC(N2CCN(CCC3CCN(c4cc(F)c([C@H]5CCC(=O)NC5=O)c(F)c4)CC3)CC2)CC1` [Example 578, (R)-3-(4-(4-(2-(4-(1-(4-((5-bromo-4-((2-cyclopropyl-5-(dimethylphosphoryl)-1-oxo-1,2-dihydrophthalazin-6-yl)amino)pyrimidin-2-yl)amino)-2-ethyl-5-methoxyphenyl)piperidin-4-yl)piperazin-1-yl)ethyl)piperidin-1-yl)-2,6-difluorophenyl)piperidine-2,6-dione], the results for the 50% degradation concentration (DC50) in assay [1] (setting [3]) and in assay [2] (setting [5]) were 12.2 nM and 3.11 nM, respectively. For the same compound, in assay [1] (setting [4]), the Dmax was 96.5%. Further, the “Dmax (%) H1975 # 28 DTC” value in assay [2] (setting [6]) is on record as 87.5%.
As to `CCOc1cc(N2CCC(N3CCN(CCc4cc(F)c([C@H]5CCC(=O)NC5=O)c(F)c4)CC3)CC2)c(CC)cc1Nc1ncc(Br)c(Nc2ccc3nc(C)c(F)cc3c2P(C)(C)=O)n1` [Example 728, (R)-3-(4-(2-(4-(1-(4-((5-bromo-4-((5-(dimethylphosphoryl)-3-fluoro-2-methylquinolin-6-yl)amino)pyrimidin-2-yl)amino)-5-ethoxy-2-ethylphenyl)piperidin-4-yl)piperazin-1-yl)ethyl)-2,6-difluorophenyl)piperidine-2,6-dione], the values for the 50% degradation concentration (DC50) in assay [1] (setting [3]) and in assay [2] (setting [5]) were 9.14 nM and 0.803 nM, respectively. Moreover, the “Dmax (%) H1975 # 28 DTC” value in assay [2] (setting [6]) came out at 87.57%.
Consider `CCc1cc(Nc2ncc(Br)c(Nc3ccc4c(=O)n(CC)ncc4c3P(C)(C)=O)n2)c(OC)cc1N1CCC(N2CCN(C(=O)[C@@H]3CCN(c4cc(F)c([C@H]5CCC(=O)NC5=O)c(F)c4)C3)CC2)CC1` [Example 673, (R)-3-(4-((R)-3-(4-(1-(4-((5-bromo-4-((5-(dimethylphosphoryl)-2-ethyl-1-oxo-1,2-dihydrophthalazin-6-yl)amino)pyrimidin-2-yl)amino)-2-ethyl-5-methoxyphenyl)piperidin-4-yl)piperazine-1-carbonyl)pyrrolidin-1-yl)-2,6-difluorophenyl)piperidine-2,6-dione], for which the results for the DC50 in assay [1] (setting [3]) and in assay [2] (setting [5]) were 5.79 nM and 0.677 nM, respectively. In addition, the greatest degradation seen (Dmax) in assay [1] (setting [4]) is 93.3%. Moreover, the “Dmax (%) H1975 # 28 DTC” value in assay [2] (setting [6]) is recorded as 85.2%.
In the same order, the values of `CCc1cc(Nc2ncc(Br)c(Nc3cc(F)c4nc(C)ccc4c3P(C)(C)=O)n2)c(OC)cc1N1CCC(N2CCN(C(=O)C3CCN(c4cc(F)c(C5CCC(=O)NC5=O)c(F)c4)CC3)CC2)CC1` (centres unmarked) [Example 512, 3-(4-(4-(4-(1-(4-((5-bromo-4-((5-(dimethylphosphoryl)-8-fluoro-2-methylquinolin-6-yl)amino)pyrimidin-2-yl)amino)-2-ethyl-5-methoxyphenyl)piperidin-4-yl)piperazine-1-carbonyl)piperidin-1-yl)-2,6-difluorophenyl)piperidine-2,6-dione] are 6.46 nM, 2.36 nM, 92% and 60.54%.
Take `CCOc1cc(N2CCC(N3CCN(C(=O)[C@@H]4CCN(c5cccc6c5oc(=O)n6C5CCC(=O)NC5=O)C4)CC3)CC2)c(CC)cc1Nc1ncc(Br)c(Nc2ccc3nc(CC)ccc3c2P(C)(C)=O)n1` (stereo partly drawn) [Example 445, 3-(7-((R)-3-(4-(1-(4-((5-bromo-4-((5-(dimethylphosphoryl)-2-ethylquinolin-6-yl)amino)pyrimidin-2-yl)amino)-5-ethoxy-2-ethylphenyl)piperidin-4-yl)piperazine-1-carbonyl)pyrrolidin-1-yl)-2-oxobenzo[d]oxazol-3(2H)-yl)piperidine-2,6-dione]: the DC50 is 5.24 nM in assay [1] (setting [7]) and 0.877 nM in assay [2] (setting [9]). Besides, in assay [1] (setting [8]), the maximal degradation (Dmax) was 87.7%. Further, the “Dmax (%) H1975 # 28 DTC” value in assay [2] (setting [6]) is recorded as 79.2%.
For the compound `CCOc1cc(N2CCC(N3CCN(CC4CN(c5cc(F)cc6c5n(C)c(=O)n6C5CCC(=O)NC5=O)C4)CC3)CC2)c(CC)cc1Nc1ncc(Br)c(Nc2ccc3nc(CC)ccc3c2P(C)(C)=O)n1` (centres unmarked) [Example 467, 3-(4-(3-((4-(1-(4-((5-bromo-4-((5-(dimethylphosphoryl)-2-ethylquinolin-6-yl)amino)pyrimidin-2-yl)amino)-5-ethoxy-2-ethylphenyl)piperidin-4-yl)piperazin-1-yl)methyl)azetidin-1-yl)-6-fluoro-3-methyl-2-oxo-2,3-dihydro-1H-benzo[d]imidazol-1-yl)piperidine-2,6-dione], the half-maximal degradation concentration (DC50) in assay [1] (setting [3]) came out at 12.5 nM; in assay [2] (setting [5]), 1.83 nM. The Dmax in assay [1] (setting [4]) amounted to 91.3%. In addition, in assay [2] (setting [6]), the “Dmax (%) H1975 # 28 DTC” value came to 76.06%.
Regarding `CCc1ccc2c(P(C)(C)=O)c(Nc3nc(Nc4cc(CC)c(N5CCC(N6CCN(C(=O)C7CCN(c8cccc9c8oc(=O)n9C8CCC(=O)NC8=O)CC7)CC6)CC5)cc4OC)ncc3Br)ccc2n1` (centres unmarked) [Example 450, 3-(7-(4-(4-(1-(4-((5-bromo-4-((5-(dimethylphosphoryl)-2-ethylquinolin-6-yl)amino)pyrimidin-2-yl)amino)-2-ethyl-5-methoxyphenyl)piperidin-4-yl)piperazine-1-carbonyl)piperidin-1-yl)-2-oxobenzo[d]oxazol-3(2H)-yl)piperidine-2,6-dione], the DC50 in assay [1] (setting [7]) was 2.68 nM; in assay [2] (setting [9]), 0.616 nM. Further, the Dmax in assay [1] (setting [8]) came out at 87.7%. Moreover, the “Dmax (%) H1975 # 28 DTC” value in assay [2] (setting [6]) came to 77%.
With `CCc1ccc2c(P(C)(C)=O)c(Nc3nc(Nc4cc(CC)c(N5CCC(N6CCN(CCc7c(F)ccc8c7oc(=O)n8C7CCC(=O)NC7=O)CC6)CC5)cc4OC)ncc3Br)ccc2n1` (centres unmarked) [Example 444, 3-(7-(2-(4-(1-(4-((5-bromo-4-((5-(dimethylphosphoryl)-2-ethylquinolin-6-yl)amino)pyrimidin-2-yl)amino)-2-ethyl-5-methoxyphenyl)piperidin-4-yl)piperazin-1-yl)ethyl)-6-fluoro-2-oxobenzo[d]oxazol-3(2H)-yl)piperidine-2,6-dione], the results for the half-maximal degradation concentration (DC50) in assay [1] (setting [3]) and in assay [2] (setting [5]) were 6.28 nM and 1.19 nM, respectively. Further, the maximal degradation (Dmax) in assay [1] (setting [4]) worked out at 79.4%. In addition, the “Dmax (%) H1975 # 28 DTC” value in assay [2] (setting [6]) was determined as 79.58%.
As for `CCc1cc(Nc2ncc(Br)c(Nc3ccc4nc(C#N)ccc4c3P(C)(C)=O)n2)c(OC)cc1N1CCC(N2CCN(C(=O)[C@@H]3CCN(c4cc(F)c([C@H]5CCC(=O)NC5=O)c(F)c4)C3)CC2)CC1` [Example 674, 6-((5-bromo-2-((4-(4-(4-((R)-1-(4-((R)-2,6-dioxopiperidin-3-yl)-3,5-difluorophenyl)pyrrolidine-3-carbonyl)piperazin-1-yl)piperidin-1-yl)-5-ethyl-2-methoxyphenyl)amino)pyrimidin-4-yl)amino)-5-(dimethylphosphoryl)quinoline-2-carbonitrile], the results for the 50% degradation concentration (DC50) in assay [1] (setting [3]) and in assay [2] (setting [5]) were 9.62 nM and 2.19 nM, respectively. Besides, in assay [1] (setting [4]), the maximal degradation (Dmax) was determined as 94.6%. The “Dmax (%) H1975 # 28 DTC” value in assay [2] (setting [6]) is 69.95%.
As to `CCc1cc(Nc2ncc(Br)c(Nc3ccc4nc(NC5CC5)ccc4c3P(C)(C)=O)n2)c(OC)cc1N1CCC(N2CCN(CCc3cc(F)c([C@H]4CCC(=O)NC4=O)c(F)c3)CC2)CC1` [Example 653, (R)-3-(4-(2-(4-(1-(4-((5-bromo-4-((2-(cyclopropylamino)-5-(dimethylphosphoryl)quinolin-6-yl)amino)pyrimidin-2-yl)amino)-2-ethyl-5-methoxyphenyl)piperidin-4-yl)piperazin-1-yl)ethyl)-2,6-difluorophenyl)piperidine-2,6-dione], the figures for the DC50 in assay [1] (setting [3]) and in assay [2] (setting [5]) were 7.19 nM and 0.7 nM, respectively. The Dmax in assay [1] (setting [4]) came out at 87.7%. Further, the “Dmax (%) H1975 # 28 DTC” value in assay [2] (setting [6]) was 87.89%.
Turning to `CCc1cc(Nc2ncc(Br)c(Nc3ccc4nc(C)ccc4c3P(C)(C)=O)n2)c(OC2CC2)cc1N1CCC(N2CCN(CCc3cccc4c3n(C)c(=O)n4C3CCC(=O)NC3=O)CC2)CC1` (centres unmarked) [Example 642, 3-(4-(2-(4-(1-(4-((5-bromo-4-((5-(dimethylphosphoryl)-2-methylquinolin-6-yl)amino)pyrimidin-2-yl)amino)-5-cyclopropoxy-2-ethylphenyl)piperidin-4-yl)piperazin-1-yl)ethyl)-3-methyl-2-oxo-2,3-dihydro-1H-benzo[d]imidazol-1-yl)piperidine-2,6-dione], the DC50 in assay [1] (setting [3]) turned out to be 1.42 nM; in assay [2] (setting [5]), 0.617 nM. In addition, in assay [1] (setting [4]), the Dmax is 93.7%. Further, the “Dmax (%) H1975 # 28 DTC” value in assay [2] (setting [6]) worked out at 76.78%.
For `CCc1cc(Nc2ncc(Br)c(Nc3ccc4nc(C)sc4c3P(C)(C)=O)n2)c(OC)cc1N1CCC(N2CCN(C(=O)[C@@H]3CCN(c4cc(F)c([C@H]5CCC(=O)NC5=O)c(F)c4)C3)CC2)CC1` [Example 685, (R)-3-(4-((R)-3-(4-(1-(4-((5-bromo-4-((7-(dimethylphosphoryl)-2-methylbenzo[d]thiazol-6-yl)amino)pyrimidin-2-yl)amino)-2-ethyl-5-methoxyphenyl)piperidin-4-yl)piperazine-1-carbonyl)pyrrolidin-1-yl)-2,6-difluorophenyl)piperidine-2,6-dione], in that order: 5.29 nM, 0.787 nM, 95% and 83.23%.
